In patent publication US9163063B2, “Peptides and nanoparticles for therapeutic and diagnostic applications” (Trustees of Dartmouth College, priority 2009, dated 2015):
Peptide text beside a SMILES is read from it. * marks the point of attachment. Benzoyl(4-Br) = O=C(c1ccc(Br)cc1)*; Myristoyl = CCCCCCCCCCCCCC(=O)*

How the values were obtained:
[1] = test system: EGFR; assay: Western blot of EGFR in MDA-MB-231A-WT cells; format: cell-based; details: 48 hours; 50, 100, 200 μM
Method: (§1) AsPC1, MDA231-WT cells were grown in a 100 mm tissue culture dish in RPMI medium containing serum, L-glutamine and antibiotics. At 60% confluency cells were treated with GIPC inhibitor peptides in a dose dependent and time dependent manner. Untreated and GIPC inhibitor peptide-treated AsPC1 and MDA231-WT cells were washed thrice with 10 ml of cold PBS, lysed with ice-cold RIPA buffer along with halt and PIC incubated on ice for 10 min, and centrifuged at 4° C. for 10 min. The expression of IGF-1R and EGFR protein was determined in untreated and peptides treated AsPC1 and MD231A cells by Western blot analysis according to standard protocols. Briefly, protein concentration in the cell lysates was measured using Bradford assay kit (Bio-rad). The proteins were loaded on a 10% SDS-PAGE gel for separation and transferred to a membrane. […]
(§2) Since GIPC association with IGF-1R is important for IGF-1R stability, the effects of CR1023 and CR1166 on the expression of both IGF-1R and EGFR were investigated. The levels of EGFR and IGF-1R in pancreatic cancer cells (AsPC1) and breast cancer cells (MDA-MB-231A-WT) were analyzed using Western blot analysis after treatment with GIPC inhibitor peptides or control peptides for 48 hours at different concentrations (50 μM, 100 μM and 200 μM) (FIG. 21, A and B). […]

[2] = test system: AsPC1 cells; assay: MTS cell viability assay (Example 7); format: cell-based, human; details: for reduced cell viability observed: 50-200 μM
Method: (§3) To assess the cytotoxic and cell viability effects of GIPC inhibitor peptides, an MTS assay was conducted in pancreatic cancer cells (AsPC1) and breast cancer cells (MDA-MB-231-WT) using CR1023 and CR1166, as well as control peptides (CR1162, CR1164, CR2055 and CR2059) in a dose dependent manner (50-200 μM).

[3] = test system: AsPC1 cells; assay: Apoptosis assay (annexin/PI); format: cell-based, human; details: for reduction in live AsPC1 cells / apoptosis induced: within 48 h; for induction of apoptosis: 50-200 μM
Method: (§4) MDA231-WT and AsPC1 ells were seeded into 6-well plates at a density of 4×10^5/2 ml of RPMI medium per well and grown overnight. Next day cells were treated with GIPC inhibitor peptides in a time dependent (48 h-96 h) and dose dependent manner (50-200 μM). After treatment with definite time, cells were extensively washed with PBS and tested with the Annexin V-FITC Apoptosis Detection Kit (Biovision, Cat. No. #K101-100) per the manufacturer's instructions.

[4] = test system: IGF-1R; assay: Western blot of IGF-1R in MDA-MB-231A-WT cells; format: cell-based; details: 48 hours; 50, 100, 200 μM
Method: as §1, §2

[5] = test system: IGF-1R; assay: Western blot of IGF-1R in AsPC1 cells; format: cell-based, human; details: 48 hours; 50, 100, 200 μM
Method: as §1, §2

[6] = test system: MDA-MB-231-WT cells; assay: Apoptosis assay (annexin/PI); format: cell-based; details: for apoptosis induced: within 48 h; for induction of apoptosis: 50-200 μM
Method: as §4

[7] = biological target: T1, co-localization of GIPC and IGF-1R (Homo sapiens, UniProt O14908); assay: Duolink II co-localization of GIPC and IGF-1R in AsPC1 cells; format: cell-based
T1 construct: endogenous in cells; host or cells: AsPC1
T1 sequence (O14908 1-333): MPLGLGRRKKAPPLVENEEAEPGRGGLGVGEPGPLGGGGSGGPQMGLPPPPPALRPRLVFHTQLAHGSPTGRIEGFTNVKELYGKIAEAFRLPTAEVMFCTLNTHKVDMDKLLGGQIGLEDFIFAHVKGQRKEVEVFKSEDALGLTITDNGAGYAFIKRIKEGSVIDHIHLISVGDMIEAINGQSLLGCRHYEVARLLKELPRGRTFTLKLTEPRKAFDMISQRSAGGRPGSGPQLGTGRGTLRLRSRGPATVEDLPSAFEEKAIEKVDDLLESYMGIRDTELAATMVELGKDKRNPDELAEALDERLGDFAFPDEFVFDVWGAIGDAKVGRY
Method: Co-localization experiments were performed using a Duolink II Fluorescence kit to visualize the co-localization of GIPC and IGF-1R in control untreated AsPC1 cells (FIG. 23). Red fluorescence indicated the co-localization of GIPC and IGF-1R in AsPC1 cells.

[8] = test system: MDA-MB-231-WT cells; assay: MTS cell viability assay (Example 7); format: cell-based; details: for reduced cell viability observed: 50-200 μM
Method: as §3

[9] = test system: EGFR; assay: Western blot of EGFR in AsPC1 cells; format: cell-based, human; details: 48 hours; 50, 100, 200 μM
Method: as §1, §2

[10] = test system: AsPC1 cells expressing GFP/luciferase; assay: Pancreatic tumor model, intratumoral injections; format: in vivo, female SCID mice; details: for pancreatic tumor growth over time compared to control peptides: intratumoral, alternate days, one month
Method: (§5) In vivo tumor model experiments using female SCID mice were performed to test the effectiveness of GIPC inhibitor peptides. The pancreatic tumor model was established by injecting 5×10^6 AsPC1 cells expressing GFP/luciferase resuspended in 50 μL of sterile PBS into the mouse right flank. Similarly, the breast tumor growth model was established in mice by injecting 2×10^6 MD-MBA-231-WT cells resuspended in 50 μL of sterile PBS into the mammary fat pad of the female SCID mice. When tumors volumes reached 50-100 mm^3, the GIPC inhibitor peptides and controls were intratumorally injected on alternate days over a period of one month. In order to monitor the pancreatic tumor burden, the mice were non-invasively imaged using the IVIS 200 Bioluminescence Imaging system (Xenon Corp.) before sacrificing. After bioluminescence imaging, the effect of the peptides on tumor growth (weight and volume) and EGFR and IGF-1R expression from tumors collected from different groups were examined. Tumors collected after sacrificing the SCID mice were measured by digital slide calipers using the (½ab^2) formula.

[11] = biological target: T2, interaction between IGF-1R and GIPC (Homo sapiens, UniProt O14908); assay: Immunoprecipitation for GIPC, immunoblot against IGF-IR in AsPC1 cells; format: cell-based; details: for interaction between IGF-1R and GIPC: IP with GIPC antibody (N-19); for protein levels of IGF-IR: in vitro model
T2 construct: endogenous in cells; host or cells: AsPC1
T2 sequence (O14908 1-333): T1 sequence (O14908 1-333)
Method: AsPC1 cells were treated and lysate was collected in RIPA buffer. After immunoprecipitation with a GIPC antibody (N-19), western blot analysis was performed.

[12] = test system: MD-MBA-231-WT cells; assay: Breast tumor growth model, intratumoral injections; format: in vivo, female SCID mice
Method: as §5

| SMILES | EGFR expression compared to control peptides [1] | reduced cell viability observed [2] | reduction in live AsPC1 cells ([3]; 50 μM) [%] | reduction in live AsPC1 cells ([3]; 200 μM) [%] | induction of apoptosis [3] | IGF-1R expression compared to control peptides [4] | IGF-1R expression compared to control peptides [5] | apoptosis induced ([6]; 50 μM) [%] | apoptosis induced ([6]; 200 μM) [%] | induction of apoptosis [6] | red fluorescence (co-localization of GIPC and IGF-1R) compared to control [7] | reduced cell viability observed [8] | EGFR expression compared to control peptides [9] | pancreatic tumor growth over time compared to control peptides [10] | interaction between IGF-1R and GIPC [11] | protein levels of IGF-IR [11] | other results |
| --- | --- | --- | --- | --- | --- | --- | --- | --- | --- | --- | --- | --- | --- | --- | --- | --- | --- |
| CCCCCCCCCCCCCC(=O)N1CCC[C@H]1C(=O)N[C@@H](CO)C(=O)N[C@@H](CCC(N)=O)C(=O)N[C@@H](CO)C(=O)N[C@@H](CO)C(=O)N[C@@H](CO)C(=O)N[C@@H](CCC(=O)O)C(=O)N[C@@H](C)C(=O)O [CR1023, My-PSQSSSEA] (Myristoyl-PSQSSSEA-OH; C-terminus assumed) | reduced | Reduced cell viability | ~78 | ~62 | significant induction of apoptosis | reduced | reduced | ~30 | ~35 | significant induction of apoptosis | reduced red fluorescence | Reduced cell viability | reduced | significantly suppressed the pancreatic tumor growth | interfere with the interaction | reduced protein levels of IGF-IR significantly | – |
| CCCCCCCCCCCCCC(=O)N1CCC[C@H]1C(=O)N[C@@H](CO)C(=O)N[C@@H](CCC(N)=O)C(=O)N[C@@H](CO)C(=O)N[C@@H](CCCCNC(=O)c1ccc(Br)cc1)C(=O)N[C@@H](CO)C(=O)N[C@@H](CCCCNC(=O)c1ccc(Br)cc1)C(=O)N[C@@H](C)C(=O)O [CR1166, My-PSQSK(4-Br-ben)SK(4-Br-ben)A] (Myristoyl-PSQSK(Benzoyl(4-Br))SK(Benzoyl(4-Br))A-OH; C-terminus assumed) | reduced | Reduced cell viability | ~53 | ~35 | significant induction of apoptosis | reduced | reduced | ~54 | ~61 | significant induction of apoptosis | reduced red fluorescence | Reduced cell viability | reduced | significantly suppressed the pancreatic tumor growth | interfere with the interaction | reduced protein levels of IGF-IR significantly | cell viability reduced more compared to CR1023 ([2]; 50 μM): ~50%; cell viability reduced more compared to CR1023 ([2]; 100 μM): ~45%; cell viability reduced more compared to CR1023 ([2]; 200 μM): ~35%; apoptosis induced ([3]; 50 μM): ~47%; apoptosis induced ([3]; 200 μM): ~65%; breast tumor regression as compared to mice treated with CR1023 ([12]; CR1023 data not shown): ~1.4 times; IGF-1R expression in tumor compared to CR2059 ([12]; breast tumors): significant reduction; breast tumor growth over time compared to controls ([12]; intratumoral, alternate days): significantly suppressed breast tumor growth; breast tumor regression as compared to control DMSO-PBS-treated mice ([12]; mouse, in vivo): ~2.7 times; breast tumor regression as compared to mice treated with CR2055 ([12]; mouse, in vivo): ~2.1 times; breast tumor regression as compared to mice treated with CR2059 ([12]; mouse, in vivo): ~2.2 times; cell viability reduced more compared to CR1023 ([8]; at 50 μM, 100 μM, and 200 μM): 30-33%; EGFR expression in tumor compared to control CR2055 ([10]; pancreatic tumors): significant reduction; IGF-1R expression in tumor compared to control CR2055 ([10]; pancreatic tumors): significant reduction; tumor regression as compared to control DMSO-PBS-treated mice ([10]; pancreatic tumors): ~4.8 times; tumor regression as compared to mice treated with CR1023 ([10]; pancreatic tumors): ~2.3 times; tumor regression as compared to mice treated with CR2055 ([10]; pancreatic tumors): ~3.8 times; tumor regression as compared to mice treated with CR2059 ([10]; pancreatic tumors): ~3.9 times |
